Values of other authors as cited in patent publication US20190183792A1, “COMPOSITION AND METHOD FOR TREATING HERPESVIRUS IN MAMMALS” (VELOCE BIOPHARMA, LLC, priority 2016, published 2019).

Tests used:
Feline Herpesvirus = settings: research by Nasisse
[1] = tested on: Human herpes simplex virus
[2] = tested on: ocular herpesvirus infection; settings: canine models in vivo
[3] = compared among the antivirals

Structure (SMILES)	effectiveness against Feline Herpesvirus (rank order) (Feline Herpesvirus)	solubility [3]	further results
Nc1nc2c(ncn2COCCO)c(=O)[nH]1 [Acyclovir]	not effective	–	effectiveness against Human herpes simplex virus [1]: most effective
Nc1ncnc2c1ncn2[C@@H]1O[C@H](CO)[C@@H](O)[C@@H]1O [Adenine Arabinoside]	then Adenine Arabinoside	–	–
Nc1ccn(C[C@@H](CO)OCP(=O)(O)O)c(=O)n1 [Cidofovir]	–	–	local ocular toxicity [2]: local ocular toxicity is significant; viral shedding [2]: decrease viral shedding
O=c1[nH]c(=O)n([C@H]2C[C@H](O)[C@@H](CO)O2)cc1I [Idoxuridine]	–	poorly soluble	–
O=c1[nH]c(=O)n([C@H]2C[C@H](O)[C@@H](CO)O2)cc1C(F)(F)F [Triflurothymidine]	most effective	most soluble	effectiveness [3]: most effective; toxicity [3]: least toxic
